Experimental data published in ChEMBL document CHEMBL1909046, “DrugMatrix in vitro pharmacology data”.

Legend:
[1] = biological target: 5-hydroxytryptamine receptor 6 (Homo sapiens, UniProt P50406); format: cell membranes, HeLa, Membrane; details: hela; further: in other assays of this panel Not Active means under 50% inhibition at 10 µM
[2] = DRUGMATRIX: GABAA, Flunitrazepam, Central radioligand binding (ligand: [3H] Flunitrazepam); format: cell membranes, Rattus norvegicus, Wistar, Brain, Membrane; details: Not Active = under 50% inhibition at 10 µM
[3] = DRUGMATRIX: Glutamate, Kainate radioligand binding (ligand: [3H] Kainic acid); format: cell membranes, Rattus norvegicus, Wistar, Brain, Membrane; details: Not Active = under 50% inhibition at 10 µM
[4] = DRUGMATRIX: Potassium Channel [KATP] radioligand binding (ligand: [3H] Glyburide); format: cell membranes, Membrane; details: hit-t15; Not Active = under 50% inhibition at 10 µM
Interstitial collagenase = biological target: T1, Interstitial collagenase (Homo sapiens, UniProt P03956); assay: biochemical; format: tissue-based, Rheumatoid synovial fibroblasts;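 further: MMP-1 enzyme inhibition assay using a peptide substrate; in other assays of this panel Not Active means under 50% inhibition at 10 µM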
T1 sequence (P03956 whole entry): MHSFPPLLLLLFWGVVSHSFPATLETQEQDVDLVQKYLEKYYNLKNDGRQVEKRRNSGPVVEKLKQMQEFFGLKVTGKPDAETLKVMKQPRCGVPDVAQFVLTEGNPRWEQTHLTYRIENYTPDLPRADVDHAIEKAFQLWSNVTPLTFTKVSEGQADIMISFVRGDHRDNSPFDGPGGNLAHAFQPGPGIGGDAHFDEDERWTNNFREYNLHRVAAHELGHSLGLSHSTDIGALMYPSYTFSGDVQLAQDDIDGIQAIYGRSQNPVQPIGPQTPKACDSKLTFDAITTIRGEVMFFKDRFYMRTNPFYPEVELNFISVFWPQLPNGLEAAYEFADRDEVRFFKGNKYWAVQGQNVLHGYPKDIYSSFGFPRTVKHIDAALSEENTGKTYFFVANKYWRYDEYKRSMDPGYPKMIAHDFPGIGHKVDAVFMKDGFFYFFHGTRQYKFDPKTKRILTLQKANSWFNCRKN

[5] = DRUGMATRIX: Nicotinic Acetylcholine radioligand binding (ligand: [125I] Epibatidine); format: cell membranes, Membrane; details: imr-32; Not Active = under 50% inhibition at 10 µM
[6] = biological target: Protein kinase C alpha type (Homo sapiens, UniProt P17252); format: cell-based; details: sf9;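 further: inhibition of PKCalpha kinase activity measured in an enzyme assay with histone as the phosphorylation substrate; in other assays of this panel Not Active means under 50% inhibition at 10 µM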

Sequence of 5-hydroxytryptamine receptor 6 (P50406 whole entry): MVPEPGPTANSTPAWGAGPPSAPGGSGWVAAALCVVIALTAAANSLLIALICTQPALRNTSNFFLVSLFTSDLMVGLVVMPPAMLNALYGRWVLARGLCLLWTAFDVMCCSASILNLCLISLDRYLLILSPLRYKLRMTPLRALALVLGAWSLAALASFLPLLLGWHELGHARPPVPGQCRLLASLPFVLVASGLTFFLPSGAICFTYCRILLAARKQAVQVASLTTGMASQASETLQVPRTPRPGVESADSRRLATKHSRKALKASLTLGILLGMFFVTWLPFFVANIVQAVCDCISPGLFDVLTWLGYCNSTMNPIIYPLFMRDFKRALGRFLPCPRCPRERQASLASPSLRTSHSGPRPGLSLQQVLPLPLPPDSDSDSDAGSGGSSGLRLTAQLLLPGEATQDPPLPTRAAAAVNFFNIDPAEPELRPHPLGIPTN

O=C1CC[C@@]2(O)[C@H]3Cc4ccc(O)c5c4[C@@]2(CCN3CC2CC2)[C@H]1O5 [NALTREXONE]
Not Active: IC50 [1] | IC50 [2] | Ki [2] | IC50 [3] | Ki [3] | IC50 [4] | Ki [4] | IC50 (Interstitial collagenase) | IC50 [5] | Ki [5] | IC50 [6]

C=CCc1ccc2c(c1)OCO2 [SAFROLE]
Not Active: IC50 [1] | IC50 [2] | Ki [2] | IC50 [3] | Ki [3] | IC50 [4] | Ki [4] | IC50 (Interstitial collagenase) | IC50 [5] | Ki [5] | IC50 [6]

O=[As][O-].[Na+] [SODIUM ARSENITE]
Not Active: IC50 [1] | IC50 [2] | Ki [2] | IC50 [3] | Ki [3] | IC50 [4] | Ki [4] | IC50 (Interstitial collagenase) | IC50 [5] | Ki [5] | IC50 [6]

Cc1cn([C@H]2C=C[C@@H](CO)O2)c(=O)[nH]c1=O [STAVUDINE]
Not Active: IC50 [1] | IC50 [2] | Ki [2] | IC50 [3] | Ki [3] | IC50 [4] | Ki [4] | IC50 (Interstitial collagenase) | IC50 [5] | Ki [5] | IC50 [6]

COC(=O)Nc1nc2ccc(C(=O)c3ccccc3)cc2[nH]1 [MEBENDAZOLE]
Not Active: IC50 [1] | IC50 [2] | Ki [2] | IC50 [3] | Ki [3] | IC50 [4] | Ki [4] | IC50 (Interstitial collagenase) | IC50 [5] | Ki [5] | IC50 [6]

CC[C@H](C)C(=O)O[C@H]1CCC=C2C=C[C@H](C)[C@H](CC[C@@H]3C[C@@H](O)CC(=O)O3)[C@H]21 [MEVASTATIN]
Not Active: IC50 [1] | IC50 [2] | Ki [2] | IC50 [3] | Ki [3] | IC50 [4] | Ki [4] | IC50 (Interstitial collagenase) | IC50 [5] | Ki [5] | IC50 [6]

O=C(OC[C@H]1O[C@@H](OC(=O)c2cc(O)c(O)c(OC(=O)c3cc(O)c(O)c(O)c3)c2)[C@H](OC(=O)c2cc(O)c(O)c(OC(=O)c3cc(O)c(O)c(O)c3)c2)[C@@H](OC(=O)c2cc(O)c(O)c(OC(=O)c3cc(O)c(O)c(O)c3)c2)[C@@H]1OC(=O)c1cc(O)c(O)c(OC(=O)c2cc(O)c(O)c(O)c2)c1)c1cc(O)c(O)c(OC(=O)c2cc(O)c(O)c(O)c2)c1 [TANNIC ACID]
Not Active: IC50 [1] | IC50 [2] | Ki [2] | IC50 [3] | Ki [3] | IC50 [4] | Ki [4] | IC50 (Interstitial collagenase) | IC50 [5] | Ki [5] | IC50 [6]

LEAD(IV) ACETATE
Not Active: IC50 [1] | Ki [1] | IC50 [2] | Ki [2] | IC50 [3] | Ki [3] | IC50 [4] | Ki [4] | IC50 (Interstitial collagenase) | Ki (Interstitial collagenase) | IC50 [5] | Ki [5] | IC50 [6] | Ki [6]

CC#C[C@]1(O)CC[C@H]2[C@@H]3CCC4=CC(=O)CCC4=C3[C@@H](c3ccc(N(C)C)cc3)C[C@@]21C [MIFEPRISTONE]
Not Active: IC50 [1] | IC50 [2] | Ki [2] | IC50 [3] | Ki [3] | IC50 [4] | Ki [4] | IC50 (Interstitial collagenase) | IC50 [5] | Ki [5] | IC50 [6]

Cc1[nH]c(=O)c(C#N)cc1-c1ccncc1 [MILRINONE]
Not Active: IC50 [1] | IC50 [2] | Ki [2] | IC50 [3] | Ki [3] | IC50 [4] | Ki [4] | IC50 (Interstitial collagenase) | IC50 [5] | Ki [5] | IC50 [6]

CCN(CC)N=O [N-NITROSODIETHYLAMINE]
Not Active: IC50 [1] | IC50 [2] | Ki [2] | IC50 [3] | Ki [3] | IC50 [4] | Ki [4] | IC50 (Interstitial collagenase) | IC50 [5] | Ki [5] | IC50 [6]

Cc1ccc(S(=O)(=O)NC(=O)NN2CCCCCC2)cc1 [TOLAZAMIDE]
Not Active: IC50 [1] | IC50 [2] | Ki [2] | IC50 [3] | Ki [3] | IC50 [4] | Ki [4] | IC50 (Interstitial collagenase) | IC50 [5] | Ki [5] | IC50 [6]

CC(O)C(=O)O (stereo not given) [LACTIC ACID]
Not Active: IC50 [1] | IC50 [2] | Ki [2] | IC50 [3] | Ki [3] | IC50 [4] | Ki [4] | IC50 (Interstitial collagenase) | IC50 [5] | Ki [5] | IC50 [6]

CS(=O)(=O)c1ccc(C2=C(c3ccccc3)C(=O)OC2)cc1 [ROFECOXIB]
Not Active: IC50 [1] | IC50 [2] | Ki [2] | IC50 [3] | Ki [3] | IC50 [4] | Ki [4] | IC50 (Interstitial collagenase) | IC50 [5] | Ki [5] | IC50 [6]

CCOC(=O)C1=C(C)NC(C)=C(C(=O)OCC)C1c1ccccc1/C=C/C(=O)OC(C)(C)C [LACIDIPINE]
Not Active: IC50 [1] | IC50 [2] | Ki [2] | IC50 [3] | Ki [3] | IC50 [4] | Ki [4] | IC50 (Interstitial collagenase) | IC50 [5] | Ki [5] | IC50 [6]

CC(N)C12CC3CC(CC(C3)C1)C2 (stereo not given) [RIMANTADINE]
Not Active: IC50 [1] | IC50 [2] | Ki [2] | IC50 [3] | Ki [3] | IC50 [4] | Ki [4] | IC50 (Interstitial collagenase) | IC50 [5] | Ki [5] | IC50 [6]

CC(Cl)(Cl)Cl [TRICHLOROETHANE]
Not Active: IC50 [1] | IC50 [2] | Ki [2] | IC50 [3] | Ki [3] | IC50 [4] | Ki [4] | IC50 (Interstitial collagenase) | IC50 [5] | Ki [5] | IC50 [6]
